Results reported in patent publication US8980925B2, “Antimicrobial amphiphiles and methods for their use” (James Madison Innovations, Inc., priority 2010, dated 2015).

Columns and labels:
[1] = test system: Pseudomonas aeruginosa strain Boston 41501 ATCC® 27853™; assay: Broth microdilution MIC and MBC, P. aeruginosa; assay type: cell-based; conditions: 37° C., 72 h, MBC and MIC values identical
Description: (§1) S. aureus and E. faecalis are Gram-positive pathogens, P. aeruginosa is a Gram-negative pathogen, and E. coli is a non-pathogenic Gram-negative organism.
(§2) The broth microdilution for determining the MIC and MBC of antimicrobial compounds was performed as previously described in Wayne, supra. Briefly, all compounds were serially diluted and 100 μl of each dilution was added to microtiter plate wells in triplicate. Overnight cultures of bacterial cells were diluted to a final inoculum of approximately 5×10^6 cfu/mL, and 100 μl of this suspension was added to all wells yielded 5×10^5 cfu/well. Cell concentrations and viability were verified by serial dilution and plating for each experiment. […] The MBC was determined as the lowest concentration of compound at which there were no colonies growing on the plate.
(§3) MIC values for the compounds of the invention were determined by the broth microdilution method as described herein. […] After microtiter plates were incubated and MICs determined, aliquots from each of the wells were placed on TSA plates and incubated to determine the MBC values for each of the compounds. The MBC was determined as the lowest concentration of compound at which there were no colonies growing on the plate. […] SDS was used for comparison in these studies.

[2] = test system: Escherichia coli ATCC® 25922™; assay: Broth microdilution MIC and MBC, E. coli; assay type: cell-based; conditions: 37° C., 72 h, MBC and MIC values identical
Description: as §1, §2, §3

[3] = test system: Entercoccus faecalis ATCC® 29212™; assay: Broth microdilution MIC and MBC, E. faecalis; assay type: cell-based; conditions: 37° C., 72 h, MBC and MIC values identical
Description: as §1, §2, §3

[4] = test system: Staphylococcus aureus subsp. aureus ATCC® 29213™; conditions: 100 μM of compound, […]10^6 cfu/ml, room temperature, up to 72 h
Text: (§4) Bacterial strains Staphylococcus aureus subsp. aureus ATCC® 29213™, Entercoccus faecalis ATCC® 29212™, Escherichia coli ATCC® 25922™, and Pseudomonas aeruginosa strain Boston 41501 ATCC® 27853™ were obtained from the American type Culture Collection (ATCC, Manassas, Va., USA). S. aureus and E. faecalis are Gram-positive pathogens, P. aeruginosa is a Gram-negative pathogen, and E. coli is a non-pathogenic Gram-negative organism. All strains are reference strains for the Clinical and Laboratory Standards Institute (CLSI) for antimicrobial susceptibility testing of nonfastidious bacteria, and were grown in Mueller-Hinton broth at 37° C. as recommended (Wayne, Pa. National Committee for Clinical Laboratory Standards (2009) Methods for Dilution Antimicrobial Tests for Bacteria That Grow Aerobically—Approved Standard M07-A8).
(§5) Compounds were added to the cultures to a final concentration of 100 μM, and tubes were incubated at room temperature. […] Data reported are times when no colonies were observed growing on plates after overnight incubation.

[5] = test system: Escherichia coli ATCC® 25922™; conditions: 100 μM of compound; for time when all cells were killed, E. coli (G−): […]10^6 cfu/ml, room temperature, up to 72 h
Text: as §4, §5

[6] = test system: Entercoccus faecalis ATCC® 29212™; conditions: 100 μM of compound, […]10^6 cfu/ml, room temperature, up to 72 h
Text: as §4, §5

[7] = test system: Staphylococcus aureus subsp. aureus ATCC® 29213™; assay: Broth microdilution MIC and MBC, S. aureus; assay type: cell-based; conditions: 37° C., 72 h, MBC and MIC values identical
Description: as §1, §2, §3

Compound	MICs and MBCs, P. aeruginosa (G−) [1] [µM]	MICs and MBCs, E. coli (G−) [2] [µM]	MICs and MBCs, E. faecalis (G+) [3] [µM]	time when all cells were killed, S. aureus (G+) [4] [h]	time when all cells were killed, E. coli (G−) [5] [h]	time when all cells were killed, E. faecalis (G+) [6] [h]	MICs and MBCs, S. aureus (G+) [7] [µM]	time necessary to kill […]10^6 cfu/mL, E. coli [5] [min]
[(2-tetradecyloxy-o-phenylene)dimethylene]bis[trimethylamonium bromide] [2,3-C14 (1)]	125	63	31	1	0.5	24	6	
[(2-tetradecyloxy-m-phenylene)dimethylene]bis[trimethylamonium bromide] [2,6-C14 (8)]	500	125	50	48			16	
[(5-tetradecyloxy-m-phenylene)dimethylene]bis[trimethylamonium bromide] [3,5-C14 (9)]	>63	31	31	1	1	1	8	
CCCCCCCCCCCCOS(=O)(=O)[O-].[Na+] [SDS (13), SDS, reference compound]	>500	>500	500				250	
[(6-tetradecyloxy-m-phenylene)dimethylene]bis[trimethylamonium bromide] [2,4-C14 (2)]	125	31	16	1	1	2	6	
1-tetradecyloxy-2,5-bis(4,4′-bipyridinium)benzene, bis-bromide salt [2,5-C14dipyr (41)]	125	16	31				16	
1-hexadecyloxy-3,5-bis[(trimethlammonoum bromide)methyl]benzene [3,5-C16 (10)]	>63	63	31	0.25	0.25	0.25	16	≤ 15
